Test results: ChEMBL document CHEMBL4888484, “Replenishing the malaria drug discovery pipeline: Screening and hit evaluation of the MMV Hit Generation Library 1 (HGL1) against asexual blood stage Plasmodium falciparum ,using a nano luciferase reporter read-out” (2022)

Key:
Plasmodium falciparum [1] = test: Hit confirmation in dose-response curve in NF54 nanoGlo assay, at 72h; type: functional, organism-based, Erythrocyte; set-up: timepoint 72 hour; conditions: Plasmodium falciparum, NF54, Erythrocyte, 72 h
Plasmodium falciparum [2] = test: Hit confirmation in dose-response curve in NF54 pLDH assay, at 72h; type: functional, organism-based; set-up: timepoint 72 hour; conditions: NF54, Erythrocyte
[3] = Hit confirmation in dose-response curve in HepG2 cytotoxicity assay, at 72h; type: toxicity, cell-based; set-up: timepoint 72 hour; conditions: human, HepG2 cells
Plasmodium falciparum [4] = test: Hit confirmation in dose-response curve in Dd2 pLDH assay, at 72h; type: functional, organism-based; set-up: timepoint 72 hour; conditions: Dd2, Erythrocyte
Plasmodium falciparum [5] = test: Hit confirmation in dose-response curve in NF54 nanoGlo assay, at 12h; type: functional, organism-based, Erythrocyte; set-up: timepoint 12 hour; conditions: Plasmodium falciparum, NF54, Erythrocyte, 12 h

Work on `CC12CN(S(=O)(=O)c3ccc4c(c3)OCCO4)C3(C(=O)OCc4ccccc4)CC1CCC23C` (stereo not given) yielded an IC50 (Plasmodium falciparum [1]) of 2.82 µM, an IC50 (Plasmodium falciparum [2]) of 3.8 µM and an IC50 at 72 h [3] greater than 10 µM. For the same compound, the IC50 (Plasmodium falciparum [4]) was 3.24 µM and the IC50 (Plasmodium falciparum [5]) was greater than 10 µM.
`CCNC(=O)c1csc(COc2ccc3c(c2)[C@H](c2ccc(C)cc2)N(C(=O)CC(C)C)CC3)n1` showed an IC50 (Plasmodium falciparum [1]) of 3.55 µM, an IC50 (Plasmodium falciparum [2]) of 7.76 µM and an IC50 at 72 h [3] greater than 10 µM. The IC50 (Plasmodium falciparum [4]) was 4.47 µM and the IC50 (Plasmodium falciparum [5]) was 9.77 µM.
Work on `Cc1ccc(C2c3ccsc3CCN2CCC(=O)N2CCN(C(=O)Cc3cccs3)C(C)C2)cc1` (stereo not given) yielded an IC50 (Plasmodium falciparum [1]) of 8.91 µM, an IC50 (Plasmodium falciparum [2]) of 2.75 µM and an IC50 at 72 h [3] greater than 10 µM. It also gave an IC50 (Plasmodium falciparum [4]) of 10.5 µM and an IC50 (Plasmodium falciparum [5]) greater than 10 µM.
Work on `Cc1nsc2ncc(C(=O)N3CCC(C)CC3)c(N3CCC(C(=O)Nc4cc(F)ccc4F)CC3)c12` yielded an IC50 (Plasmodium falciparum [1]) of 2.82 µM, an IC50 (Plasmodium falciparum [2]) of 11.5 µM and an IC50 at 72 h [3] greater than 10 µM. The IC50 (Plasmodium falciparum [4]) was 9.77 µM and the IC50 (Plasmodium falciparum [5]) was 6.92 µM.
In the case of `COc1ccccc1Cn1cnc2c1c(=O)n(C1CCCCC1)c(=O)n2-c1ccccc1Cl`, the IC50 (Plasmodium falciparum [1]) is reported as 1.41 µM, the IC50 (Plasmodium falciparum [2]) is reported as 3.98 µM and the IC50 at 72 h [3] is reported as greater than 10 µM. The IC50 (Plasmodium falciparum [4]) was 3.16 µM and the IC50 (Plasmodium falciparum [5]) was greater than 10 µM.
`Cc1nc2cc(NC(=O)[C@@]3(C)CCCN(C(=O)c4ccccc4)C3)ccc2o1` gave an IC50 (Plasmodium falciparum [1]) of 1.58 µM, an IC50 (Plasmodium falciparum [2]) greater than 10 µM and an IC50 at 72 h [3] greater than 10 µM. The IC50 (Plasmodium falciparum [4]) was greater than 10 µM and the IC50 (Plasmodium falciparum [5]) was 0.525 µM.
In the case of `CC[C@@]1(C)CCCN(C(=O)Cc2c(C)noc2Cl)C1`, the IC50 (Plasmodium falciparum [1]) is reported as 1.51 µM, the IC50 (Plasmodium falciparum [2]) is reported as 4.37 µM and the IC50 at 72 h [3] is reported as greater than 10 µM. For the same compound, the IC50 (Plasmodium falciparum [4]) was 4.17 µM and the IC50 (Plasmodium falciparum [5]) was 4.07 µM.
Work on `Cc1ccccc1Cn1cnc2c1c(=O)n(C1CCCCC1)c(=O)n2-c1ccccc1Cl` yielded an IC50 (Plasmodium falciparum [1]) of 1.74 µM, an IC50 (Plasmodium falciparum [2]) of 5.5 µM and an IC50 at 72 h [3] greater than 10 µM. The IC50 (Plasmodium falciparum [4]) was 4.27 µM and the IC50 (Plasmodium falciparum [5]) was greater than 10 µM.
In the case of `CC(C)(C)n1nc2nc(NCCN3CCCCC3)nc(-c3ccc(F)c(Cl)c3)c2c1N`, the IC50 (Plasmodium falciparum [1]) is reported as 1.62 µM, the IC50 (Plasmodium falciparum [2]) is reported as 2.88 µM and the IC50 at 72 h [3] is reported as greater than 10 µM. The IC50 (Plasmodium falciparum [4]) was 2.82 µM and the IC50 (Plasmodium falciparum [5]) was 6.03 µM.
Compound `CCn1c(-c2cc(NC(=O)c3ccc4c(c3)OCO4)[nH]n2)cc2ccc(OC)cc21` has an IC50 (Plasmodium falciparum [1]) greater than 10 µM, an IC50 (Plasmodium falciparum [2]) greater than 10 µM and an IC50 at 72 h [3] greater than 10 µM. The IC50 (Plasmodium falciparum [4]) was greater than 10 µM and the IC50 (Plasmodium falciparum [5]) was 1.7 µM.
Work on `O=S(=O)(c1cccc(Cl)c1)N1CCc2nc(N3CCCCC3)nc(Oc3ccccc3)c2C1` yielded an IC50 (Plasmodium falciparum [1]) of 1.95 µM, an IC50 (Plasmodium falciparum [2]) of 3.02 µM and an IC50 at 72 h [3] greater than 10 µM. The IC50 (Plasmodium falciparum [4]) was 2.75 µM and the IC50 (Plasmodium falciparum [5]) was greater than 10 µM.
With `Cc1ccc(NC(=O)N2CCCN(c3ccc(NC(=O)c4cccs4)cc3C(=O)NCc3ccc(F)cc3)CC2)cc1` the IC50 (Plasmodium falciparum [1]) was 3.63 µM, the IC50 (Plasmodium falciparum [2]) was 7.94 µM and the IC50 at 72 h [3] was greater than 10 µM. The IC50 (Plasmodium falciparum [4]) was greater than 10 µM and the IC50 (Plasmodium falciparum [5]) was 6.92 µM.
`COc1ccc(-n2ncc(Oc3cccc(C)c3)c(Nc3cccc(C(=O)NCc4ccc(F)cc4)c3)c2=O)cc1` showed an IC50 (Plasmodium falciparum [1]) of 3.55 µM, an IC50 (Plasmodium falciparum [2]) greater than 10 µM and an IC50 at 72 h [3] greater than 10 µM. The IC50 (Plasmodium falciparum [4]) was 7.59 µM and the IC50 (Plasmodium falciparum [5]) was 5.75 µM.
`COCCNC(=O)c1ccc(-n2nc(-c3nnc(C)o3)c(C)c2-c2ccc(OC)cc2)cc1` gave an IC50 (Plasmodium falciparum [1]) of 3.24 µM, an IC50 (Plasmodium falciparum [2]) greater than 10 µM and an IC50 at 72 h [3] greater than 10 µM. The IC50 (Plasmodium falciparum [4]) was greater than 10 µM and the IC50 (Plasmodium falciparum [5]) was 3.63 µM.
With `O=C(c1ccc2c(c1)OCO2)N1CCn2c1nc1ccccc12` the IC50 (Plasmodium falciparum [1]) was 1.58 µM, the IC50 (Plasmodium falciparum [2]) was greater than 10 µM and the IC50 at 72 h [3] was greater than 10 µM. The IC50 (Plasmodium falciparum [4]) was greater than 10 µM and the IC50 (Plasmodium falciparum [5]) was 0.513 µM.
Work on `COc1ccccc1-n1c(=O)n(C2CCCC2)c(=O)c2c1ncn2Cc1ccccc1Cl` yielded an IC50 (Plasmodium falciparum [1]) of 3.02 µM, an IC50 (Plasmodium falciparum [2]) of 10 µM and an IC50 at 72 h [3] greater than 10 µM. It also gave an IC50 (Plasmodium falciparum [4]) of 9.55 µM and an IC50 (Plasmodium falciparum [5]) greater than 10 µM.
`O=C(Cc1ccc(N(Cc2cccc(F)c2)C(=O)C2CCCC2)cc1)NCCN1CCCCC1` gave an IC50 (Plasmodium falciparum [1]) of 0.501 µM, an IC50 (Plasmodium falciparum [2]) of 0.617 µM and an IC50 at 72 h [3] greater than 10 µM. For the same compound, the IC50 (Plasmodium falciparum [4]) was 0.724 µM and the IC50 (Plasmodium falciparum [5]) was greater than 10 µM.
Work on `O=C(Cc1ccc(N(Cc2cccc(F)c2)C(=O)c2cccc(F)c2)cc1)NCCN1CCCCC1` yielded an IC50 (Plasmodium falciparum [1]) of 3.24 µM, an IC50 (Plasmodium falciparum [2]) of 5.25 µM and an IC50 at 72 h [3] greater than 10 µM. The IC50 (Plasmodium falciparum [4]) was 7.94 µM and the IC50 (Plasmodium falciparum [5]) was greater than 10 µM.
For `CC[C@H](O)CN1CCC(Nc2ncnc3cc(Cl)ccc23)CC1`, the IC50 (Plasmodium falciparum [1]) was 1.62 µM, the IC50 (Plasmodium falciparum [2]) was 1.82 µM and the IC50 at 72 h [3] was greater than 10 µM. The IC50 (Plasmodium falciparum [4]) was 1.51 µM and the IC50 (Plasmodium falciparum [5]) was 2.95 µM.
For `CN(C)c1noc(CN2CCc3ccc(F)cc3C2)n1`, the IC50 (Plasmodium falciparum [1]) was 5.01 µM, the IC50 (Plasmodium falciparum [2]) was 7.24 µM and the IC50 at 72 h [3] was greater than 10 µM. The IC50 (Plasmodium falciparum [4]) was greater than 10 µM and the IC50 (Plasmodium falciparum [5]) was greater than 10 µM.
`COc1ccc(CCNc2nc(-c3ccc(OC)cc3F)c3c(N)n(-c4ccc(Cl)cc4)nc3n2)cc1` showed an IC50 (Plasmodium falciparum [1]) of 3.55 µM, an IC50 (Plasmodium falciparum [2]) greater than 10 µM and an IC50 at 72 h [3] greater than 10 µM. For the same compound, the IC50 (Plasmodium falciparum [4]) was 6.61 µM and the IC50 (Plasmodium falciparum [5]) was 4.9 µM.
Compound `Cc1noc(NCc2ccc(Cl)cc2)n1` has an IC50 (Plasmodium falciparum [1]) of 3.8 µM, an IC50 (Plasmodium falciparum [2]) of 8.13 µM and an IC50 at 72 h [3] greater than 10 µM. It also gave an IC50 (Plasmodium falciparum [4]) of 2.88 µM and an IC50 (Plasmodium falciparum [5]) greater than 10 µM.
Work on `CCN1CCN(C(=O)c2ccccc2N2CCC(NC(=O)c3cccc(Br)c3)CC2)CC1` yielded an IC50 (Plasmodium falciparum [1]) of 2.51 µM, an IC50 (Plasmodium falciparum [2]) of 1.66 µM and an IC50 at 72 h [3] greater than 10 µM. The IC50 (Plasmodium falciparum [4]) was 5.37 µM and the IC50 (Plasmodium falciparum [5]) was greater than 10 µM.
With `O=C(c1ccccc1F)N(Cc1nccn1Cc1c(F)cccc1Cl)C1CC1` the IC50 (Plasmodium falciparum [1]) was 2.75 µM, the IC50 (Plasmodium falciparum [2]) was 6.92 µM and the IC50 at 72 h [3] was greater than 10 µM. For the same compound, the IC50 (Plasmodium falciparum [4]) was greater than 10 µM and the IC50 (Plasmodium falciparum [5]) was 1.32 µM.
